Assay [1] has as its target T1, pre-synaptic 5-HT1A receptor (Mus musculus, UniProt Q64264).
T1 construct: from tissue; host or cells: whole animal, male CD-1 mice
T1 sequence (Q64264 1-421): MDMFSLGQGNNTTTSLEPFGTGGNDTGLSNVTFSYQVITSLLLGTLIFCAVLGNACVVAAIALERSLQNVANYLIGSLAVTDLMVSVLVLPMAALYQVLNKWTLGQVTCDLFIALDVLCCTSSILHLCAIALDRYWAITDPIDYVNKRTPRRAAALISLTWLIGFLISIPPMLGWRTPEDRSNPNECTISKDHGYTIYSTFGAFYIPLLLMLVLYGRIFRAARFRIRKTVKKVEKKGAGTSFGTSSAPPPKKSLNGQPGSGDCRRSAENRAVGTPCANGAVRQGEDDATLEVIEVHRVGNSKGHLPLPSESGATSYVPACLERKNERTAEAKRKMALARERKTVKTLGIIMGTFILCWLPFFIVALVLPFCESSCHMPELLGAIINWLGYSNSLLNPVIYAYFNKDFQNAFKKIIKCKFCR
The assay is described as follows: Antagonism of hypothermia induced by 8-OH-DPAT in mice (pre-synaptic antagonism). In kind it is in vivo. The following applies: for ED50: mouse, iv, read-out: Pre-synaptic 5-HT1A ID50, heading: Pre-synaptic 5-HT1A ID50, dose blocking 50% of hypothermia induced by 0.5 mg/kg s.c. 8-OH-DPAT in mice, compound i.v. Here is the method: The antagonistic effect of the 5-HT1A receptor antagonists of the invention on hypothermia induced by 8-OH-DPAT was evaluated by the method of Moser (Moser, Eur.J.Pharmacol., 193:165, 1991) with minor modifications as described below. Male CD-1 mice (28-38 g) obtained from Charles River (Italy) were housed in a climate-controlled room (temperature 22±2 C.; humidity 55±15%) and maintained on a 12 h light/dark cycle with free access to food and water. On the day of experiment, mice were placed singly in clear plastic boxes under the same ambient conditions. Body temperature was measured by the insertion of a temperature probe (Termist TM-S, LSI) into the rectum to a depth of 2 cm. Rectal temperature was measured immediately prior to intravenous injection of the test compound. All animals then received 8-OH-DPAT (0.5 mg/kg s.c.) and their temperature was measured 30 min later. For each animal, temperature changes were calculated with respect to pretreatment values and the mean values were calculated for each treatment group. A linear regression equation was used in order to evaluate ID50 values, defined as the dose of antagonist needed to block 50% of the hypothermic effect induced by 0.5 mg/kg 8-OH-DPAT administered subcutaneously.

The target of assay [2] is T2, 5-HT2A serotonergic receptors (Rattus norvegicus, UniProt P14842).
T2 construct: from tissue; host or cells: rat cerebral cortex membranes
T2 sequence (P14842 whole entry): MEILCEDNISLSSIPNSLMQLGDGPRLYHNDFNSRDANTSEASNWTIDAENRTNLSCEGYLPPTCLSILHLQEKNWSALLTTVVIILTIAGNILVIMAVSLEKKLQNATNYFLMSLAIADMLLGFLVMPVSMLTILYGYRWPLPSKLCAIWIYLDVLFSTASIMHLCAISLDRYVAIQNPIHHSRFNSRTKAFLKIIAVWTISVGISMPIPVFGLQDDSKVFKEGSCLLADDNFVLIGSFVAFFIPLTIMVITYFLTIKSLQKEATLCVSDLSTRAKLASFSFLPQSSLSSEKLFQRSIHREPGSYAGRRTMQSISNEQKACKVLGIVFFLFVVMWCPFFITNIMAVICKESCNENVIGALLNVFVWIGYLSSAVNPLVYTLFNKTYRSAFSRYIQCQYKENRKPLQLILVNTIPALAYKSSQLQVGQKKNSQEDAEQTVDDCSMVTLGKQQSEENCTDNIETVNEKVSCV
Briefly: Radioreceptor binding, native 5-HT2A receptors, rat cerebral cortex ([3H]ketanserin). The following applies: Table 3A not given. Here is the method:
(§1) Binding studies on native α2 adrenergic receptors (Diop L. et al, J. Neurochem. 41, 710-715, 1983), and 5-HT2A serotonergic receptors (Craig A. and Kenneth J., Life Sci. 38, 117-127, 1986) were carried out in membranes of rat cerebral cortex. Male Sprague Dawley rats (200-300 g, SD Harlan/Nossan, Italy) were killed by cervical dislocation and cerebral cortexes were excised and immediately frozen in liquid nitrogen and stored at −70° C. until use. Tissues were homogenized (2×20 sec) in 50 volumes of cold 50 mM Tris-HCl buffer pH 7.4, using a Polytron homogenizer (speed 7). Homogenates were centrifuged at 49000×g for 10 min, resuspended in 50 volumes of the same buffer, incubated at 37° C. for 15 min and centrifuged and resuspended twice more. […] Non-specific binding was determined in the presence of 10 μM phentolamine (a2-adrenergic receptors) or 2 μM ketanserin (5-HT2A serotoninergic receptors). […] The filters are then washed with ice-cold buffer and the radioactivity retained on the filters was counted by liquid scintillation spectrometry.
(§2) The inhibition of specific binding of the radioligands by the tested drugs was analyzed to estimate the IC50 value by using the non-linear curve-fitting program Allfit (De Lean et al., Am. J. Physiol. 235, E97-E102, 1978). […]

Another assay relates to α2 adrenergic receptors. The assay is described as follows: Radioreceptor binding, native α2-adrenoceptors, rat cerebral cortex ([3H]rauwolscine). The following applies: Table 3A not given. How it is done: as §1, §2

The values that follow come from patent US6399614B1, “1-(N-phenylaminoalkyl)piperazine derivatives substituted at position 2 of the phenyl ring” (Recordati S.A. Chemical and Pharmaceutical Company, priority 1997, dated 2002).

`COc1ccccc1N1CCN(CCN(C(=O)C2CCCCC2)c2ccccc2)CC1` [Compound A, 1-(N-phenyl-N-cyclohexylcarbonyl-2-aminoethyl)-4-(2-methoxyphenyl)piperazine, reference compound]: the “fold less active than compound of Example 2, pre-synaptic model” value in assay [1] (hypothermia model in mice) is listed as “at least 10 fold”. The ED50 in assay [1] worked out at 0.221 mg/kg.

In the case of `COc1ccccc1N1CCN(CCN(C(=O)C2CCCCC2)c2ccccc2[N+](=O)[O-])CC1` [Example 2, 1-[N-(2-nitrophenyl)-N-cyclohexylcarbonyl-2-aminoethyl]-4-(2-methoxyphenyl) piperazine], the “selectivity for the 5-HT1A receptor versus the 5-HT2A” value in assay [2] is “much more selective than compound A”. Also, the “selectivity for the 5-HT1A receptor versus the a2-adrenoceptors” value with α2 adrenergic receptors is “much more selective than compound A”. In addition, the ED50 in assay [1] amounted to 0.02 mg/kg.
